Measured values: patent US20100216823A1 (Pfizer Inc., priority 2007, published 2010)

Columns and labels:
Type in all cases: biochemical
PDE7B = biological target: T1, PDE7B (Homo sapiens, UniProt Q9NP56); assay: PDE7B [3H]-cAMP scintillation proximity assay (SPA) enzyme inhibition; settings: for Ki: full length PDE7B in cell lysate, ~25 nM cAMP, Ki from IC50 by Cheng-Prussof equation; for 1C/7B selectivity: ratio PDE1C Ki / PDE7B Ki
T1 construct: cell lysate containing full length PDE7A, PDE7B and PDE1C enzyme; made in house; host or cells: cell lysate
Protocol: (§1) The ability of the compounds of formula (I) to inhibit PDE7 and PDE1 may be measured using the following assay protocol.
(§2) PDE7A, PDE7B and PDE1C enzymes catalyse the hydrolysis of 3′,5′-cyclic adenosine monophosphate (cAMP) to the 5′ adenosine monophosphate, 5′AMP. In a multiwell plate, PDE enzyme, [^3H]-cAMP and the test compounds, are incubated at room temperature. The incubation is terminated by addition of commercially available yttrium silicate scintillation proximity assay (SPA) beads containing zinc sulphate. The yttrium silicate beads preferentially bind linear nucleotides, thus the product of the enzyme reaction, [^3H]-5′AMP binds to the bead to produce a light signal, which is detected by a scintillation counter. The amount of signal produced directly correlates with the amount of product formed, and thus the activity of the enzyme. The maximum signal is obtained where enzyme and substrate are incubated alone. The background signal is measured from wells either containing no enzyme, or from wells containing a supra-maximal concentration of a known PDE 7A/7B/1C inhibitor. Each purified batch of enzyme is quality controlled and its Km, Vmax and specific activity determined from kinetic studies before use in compound inhibition studies. The inhibition of the enzyme, by a test compound, is calculated relative to the maximum and background responses.
(§3) The compound of Example 75 of WO 02/074754, 5′-carboxypropoxy-8′-chloro-spiro[cyclohexane-1-4′-(3′,4′-dihydro)quinazolin]-2′(1′H)-one (referred to as compound A hereafter) was used as a standard for PDE7A and PDE7B. The compound of Example 32 of WO 02/074754, 4-(8′-chloro-2′-oxo-2′,3′-dihydro-1′H-spiro[cyclohexane-1,4′-quinazolin]-6′-yl)benzoic acid (referred to as compound B hereafter) was used as a standard for PDE1C.
(§4) The optimisation of this assay has been carried out using cell lysate containing full length PDE7A, PDE7B and PDE1C enzyme. The concentration of the enzyme in this cell lysate sample is unknown, so the specific activity of the cell lysate is used as a measure to ensure that the same activity per well is used despite any batch-to-batch variation of concentration/activity.
(§5) PDE7A/7B/1C stock enzyme was prepared and kept at −20° C. in appropriately sized aliquots to reduce the number of freeze/thaw cycles. […] PDE7A is diluted to 1/8000, PDE7B to 1/10000 and PDE1C to 1/200000.
(§6) The final assay [cAMP] of ˜25 nM is required, so ˜50 nM [^3H]-cAMP was prepared. 9 ml of substrate solution was prepared by mixing 10.8 μl of [^3H]-cAMP (available from Amersham) with 8975 μl of assay buffer.
(§7) 1 μl test compound was transferred into a suitable multi-well assay plate immediately prior to reagent assay addition, 14 μl enzyme solution was then added to the assay plate, followed by 15 μl substrate solution (ie: final assay volume 30 μl, with a final screening compound concentration of 1 μM for PDE7A and PDE7B and 10 μM for PDE1C). The plate was then sealed using a plate sealer and incubated at room temperature for 45 min on the plate shaker.
(§8) 30 μl Yttrium Silicate PDE4 SPA beads were then added, ensuring constant stirring of the beads to give even distribution in the assay plate. The plate was then sealed using a plate sealer and incubated at room temperature for 30 mins on the plate shaker. The beads were then allowed to settle for 30 mins, before spinning the plates for 1 min at 200 g.
(§9) The plates were then read on a suitable radioactive counter, for example NXT-TopCount™ (available from Perkin Elmer) using the relevant protocol (30 second read time per well).
(§10) The data was fitted to a sigmoid curve using a least squares algorithm.
(§11) The IC50 value was converted to a value using the Cheng-Prussof equation: […]

PDE7A = biological target: T2, PDE7A (Homo sapiens, UniProt Q13946); assay: PDE7A [3H]-cAMP scintillation proximity assay (SPA) enzyme inhibition; settings: for Ki: full length PDE7A in cell lysate, ~25 nM cAMP, Ki from IC50 by Cheng-Prussof equation; for 1C/7A selectivity: ratio PDE1C Ki / PDE7A Ki
T2 construct: cell lysate containing full length PDE7A, PDE7B and PDE1C enzyme; made in house; host or cells: cell lysate
Protocol: as §1, §2, §3, §4, §5, §6, §7, §8, §9, §10, §11

PDE1C = biological target: T3, PDE1C (Homo sapiens, UniProt Q14123); assay: PDE1C [3H]-cAMP scintillation proximity assay (SPA) enzyme inhibition; settings: full length PDE1C in cell lysate; 75 nM cAMP; Ki from IC50 by Cheng-Prussof equation
T3 construct: cell lysate containing full length PDE7A, PDE7B and PDE1C enzyme; made in house; host or cells: cell lysate
Protocol: as §1, §2, §3, §4, §5
The final assay [cAMP]=75 nM therefore the required solution [cAMP]=0.15 μM (1/2 dilution in assay plate)
as §7, §8, §9, §10, §11

T3 sequence (Q14123 whole entry): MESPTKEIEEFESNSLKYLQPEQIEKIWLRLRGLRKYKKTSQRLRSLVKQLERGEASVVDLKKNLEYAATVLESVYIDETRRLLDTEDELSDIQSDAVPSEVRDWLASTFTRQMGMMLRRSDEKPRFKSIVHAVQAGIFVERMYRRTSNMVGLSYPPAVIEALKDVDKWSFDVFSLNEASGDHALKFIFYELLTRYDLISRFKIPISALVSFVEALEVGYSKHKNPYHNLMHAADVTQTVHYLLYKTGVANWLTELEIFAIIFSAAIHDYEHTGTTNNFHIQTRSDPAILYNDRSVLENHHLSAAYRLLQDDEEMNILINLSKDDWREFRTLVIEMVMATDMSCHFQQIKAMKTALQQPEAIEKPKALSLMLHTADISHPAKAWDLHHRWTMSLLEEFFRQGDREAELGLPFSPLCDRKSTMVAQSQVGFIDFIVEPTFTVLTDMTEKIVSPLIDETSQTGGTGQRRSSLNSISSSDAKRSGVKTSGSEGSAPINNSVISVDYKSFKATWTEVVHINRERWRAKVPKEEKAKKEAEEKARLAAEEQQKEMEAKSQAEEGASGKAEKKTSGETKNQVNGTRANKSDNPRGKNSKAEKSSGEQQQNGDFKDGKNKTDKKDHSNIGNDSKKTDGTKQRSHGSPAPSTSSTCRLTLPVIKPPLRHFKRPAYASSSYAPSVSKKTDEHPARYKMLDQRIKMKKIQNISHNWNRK
T1 sequence (Q9NP56 whole entry): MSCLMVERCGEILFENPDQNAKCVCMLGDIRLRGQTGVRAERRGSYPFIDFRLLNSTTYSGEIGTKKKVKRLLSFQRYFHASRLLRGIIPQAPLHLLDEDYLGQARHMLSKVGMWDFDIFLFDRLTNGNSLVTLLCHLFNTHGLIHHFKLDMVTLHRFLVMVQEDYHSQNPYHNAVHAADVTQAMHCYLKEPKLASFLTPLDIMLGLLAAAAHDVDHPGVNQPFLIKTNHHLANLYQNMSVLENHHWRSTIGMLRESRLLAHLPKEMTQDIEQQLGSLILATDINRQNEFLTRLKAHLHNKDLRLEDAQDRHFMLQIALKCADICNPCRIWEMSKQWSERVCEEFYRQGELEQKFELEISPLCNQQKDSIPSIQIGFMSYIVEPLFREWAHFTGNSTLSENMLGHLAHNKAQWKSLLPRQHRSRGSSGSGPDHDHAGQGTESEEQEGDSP
T2 sequence (Q13946 whole entry): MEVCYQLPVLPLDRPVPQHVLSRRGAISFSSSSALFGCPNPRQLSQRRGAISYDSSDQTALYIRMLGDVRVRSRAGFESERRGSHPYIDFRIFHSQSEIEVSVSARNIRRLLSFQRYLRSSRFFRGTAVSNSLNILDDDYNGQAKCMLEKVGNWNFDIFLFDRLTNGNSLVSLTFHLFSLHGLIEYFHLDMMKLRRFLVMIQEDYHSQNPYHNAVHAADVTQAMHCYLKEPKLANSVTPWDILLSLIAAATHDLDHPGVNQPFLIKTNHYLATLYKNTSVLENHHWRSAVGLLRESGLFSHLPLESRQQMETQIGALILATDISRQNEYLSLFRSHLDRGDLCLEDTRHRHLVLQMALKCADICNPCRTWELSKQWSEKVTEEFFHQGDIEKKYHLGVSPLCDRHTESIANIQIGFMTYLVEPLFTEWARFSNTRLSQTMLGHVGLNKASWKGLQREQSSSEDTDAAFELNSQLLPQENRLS

Row | SMILES | Ki (PDE7B) [nM] | 1C/7B selectivity (PDE7B) | Ki (PDE7A) [nM] | 1C/7A selectivity (PDE7A) | Ki (PDE1C) [nM]
1 | O=C1Nc2c(Cl)ccc(-c3ccc(C(=O)O)c(F)c3)c2C2(CCCCC2)N1 [Example 3, 5-[(8′-chloro-2′-oxo-2′,3′-dihydro-1′H-spiro[cyclohexane-1,4′-quinazolin]-4′-yl)]-2-fluorobenzoic acid] | 101 | 24 | 11 | 218 | 2430
2 | O=C1Nc2c(Cl)ccc(Oc3c(Cl)cccc3-c3nn[nH]n3)c2C2(CCCC2)N1 [Example 15, 8′-chloro-5′-[6-chloro-2-(1H-tetrazol-5-yl)phenoxy]-1′H-spiro[cyclopentane-1,4′-quinazolin]-2′(3′H)-one] | 6.6 | 164 | 5 | 217 | 1080
3 | O=C1Nc2c(F)ccc(Oc3c(Cl)cccc3C(=O)O)c2C2(CCCCC2)N1 [Example 9, 3-chloro-2-{(8′-fluoro-2′-oxo-2′,3′-dihydro-1′H-spiro[cyclohexane-1,4′-quinazolin]-5′-yl)oxy}benzoic acid] | 41 | >92 | 32 | >116 | > 3750
4 | O=C1Nc2c(Cl)ccc(-c3cccc(C(=O)O)c3)c2C2(CCCCC2)N1 [Example 2] | 12 | >477 | 3.1 | >1810 | > 5630
5 | O=C1Nc2c(Cl)ccc(Oc3c(F)cccc3C(=O)O)c2C2(CCCC2)N1 [Example 7, 2-{(8′-chloro-2′-oxo-2′,3′-dihydro-1′H-spiro[cyclopentane-1,4′-quinazolin]-5′-oxy}-3-fluorobenzoic acid] | 21 | 107 | 11 | 201 | 2260
6 | O=C1Nc2c(Cl)ccc(Oc3ccc(F)cc3-c3nnn[nH]3)c2C2(CCCC2)N1 [Example 13, 8′-chloro-5′-[4-fluoro-2-(1H-tetrazol-5-yl)phenoxy]-1′H-spiro[cyclopentane-1,4′-quinazolin]-2′(3′H)-one] | 7.2 | 119 | 1.7 | 523 | 862
7 | CS(=O)(=O)NC(=O)c1cccc(F)c1Oc1ccc(Cl)c2c1C1(CCCCC1)NC(=O)N2 [Example 20, 2-[(8′-chloro-2′-oxo-2′,3′-dihydro-1′H-spiro[cyclohexane-1,4′-quinazolin]-5′-yl)oxy]-3-fluoro-N-(methylsulfonyl)benzamide] | 7 | 94 | 2.3 | 290 | 657
8 | O=C(O)COc1cccc(-c2ccc(Cl)c3c2C2(CCCCC2)NC(=O)N3)c1 [Example 5, [3-(8′-chloro-2′-oxo-2′,3′-dihydro-1′H-spiro[cyclohexane-1,4′-quinazolin]-5′-yl)phenoxy]acetic acid] | 51 | >113 | 4.5 | >1260 | > 5730
9 | O=C1Nc2c(Cl)ccc(Oc3c(F)cccc3C(=O)O)c2C2(CCCCC2)N1 [Example 6, 2-{(8′-chloro-2′-oxo-2′,3′-dihydro-1′H-spiro[cyclohexane-1,4′-quinazolin]-5′-yl)oxy}-3-fluorobenzoic acid] | 3.4 | 172 | 1.7 | 336 | 584
10 | O=C1Nc2c(Cl)ccc(Oc3ccccc3-c3nn[nH]n3)c2C2(CCCC2)N1 [Example 16, 8′-chloro-5′-[2-(1H-tetrazol-5-yl)phenoxy]-1′H-spiro[cyclopentane-1,4′-quinazolin]-2′(3′H)-one] | 9.8 | 79 | 2.3 | 345 | 778

The next compounds have a lower Ki (PDE7A) than those just listed; values first:

Row | Ki (PDE7B) [nM] | 1C/7B selectivity (PDE7B) | Ki (PDE7A) [nM] | 1C/7A selectivity (PDE7A) | Ki (PDE1C) [nM] | SMILES
11 | 0.4 | 186 | 0.1 | 743 | 73 | O=C1Nc2c(Cl)ccc(Oc3c(F)cccc3-c3nn[nH]n3)c2C2(CCCCC2)N1 [Example 10, 8′-chloro-5′-[2-fluoro-6-(2H-tetrazol-5-yl)phenoxy]-1′H-spiro[cyclohexane-1,4′-quinazolin]-2′(3′H)-one]
12 | 1 | 70 | < 0.2 | >307 | 70 | O=C1Nc2c(Cl)ccc(Oc3ccc(F)cc3-c3nn[nH]n3)c2C2(CCCCC2)N1 [Example 11, 8′-chloro-5′-[4-fluoro-2-(1H-tetrazol-5-yl)phenoxy]-1′H-spiro[cyclohexane-1,4′-quinazolin]-2′(3′H)-one]
13 |  |  | < 0.05 | >282 |  | O=C(O)Cc1cccc(F)c1Oc1ccc(Cl)c2c1C1(CCCCC1)NC(=O)N2 [Example 22, {2-[(8′-chloro-2′-oxo-2′,3′-dihydro-1′H-spiro[cyclohexane-1,4′-quinazolin]-5′-yl)oxy]-3-fluorophenyl}acetic acid]
14 | 39 | 0.04 | 1.5 | 0.97 | 1.4 | O=C1Nc2c(Cl)cc(-c3ccc(C(=O)O)cc3)cc2C2(CCCCC2)N1 [Compound B, 4-(8′-chloro-2′-oxo-2′,3′-dihydro-1′H-spiro[cyclohexane-1,4′-quinazolin]-6′-yl)benzoic acid, reference compound]
15 | 2.4 | 25 | 0.2 | 311 | 62 | O=C1Nc2c(Cl)ccc(Oc3c(F)cccc3NS(=O)(=O)C(F)(F)F)c2C2(CCCCC2)N1 [Example 21, N-{2-[(8′-chloro-2′-oxo-2′,3′-dihydro-1′H-spiro[cyclohexane-1,4′-quinazolin]-5′-yl)oxy]-3-fluorophenyl}-1,1,1-trifluoromethanesulfonamide]
16 | 1.5 | 115 | 0.94 | 183 | 172 | O=C1Nc2c(Cl)ccc(Oc3c(F)cccc3-c3n[nH]c(=O)[nH]3)c2C2(CCCCC2)N1 [Example 19, 8′-chloro-5′-[2-fluoro-6-(5-oxo-4,5-dihydro-1H-1,2,4-triazol-3-yl)phenoxy]-1′H-spiro[cyclohexane-1,4′-quinazolin]-2′(3′H)-one]
17 | 11 | 14 | 0.98 | 160 | 157 | O=C(O)COc1ccc(Oc2ccc(Cl)c3c2C2(CCCCC2)NC(=O)N3)cc1 [Example 24, {4-[(8′-chloro-2′-oxo-2′,3′-dihydro-1′H-spiro[cyclohexane-1,4′-quinazolin]-5′-yl)oxy]phenoxy}acetic acid]
18 | 0.8 | 48 | < 0.15 | >245 | 37 | O=C1Nc2c(Cl)ccc(Oc3ccccc3-c3nnn[nH]3)c2C2(CCCCC2)N1 [Example 17, 8′-chloro-5′-[2-(1H-tetrazol-5-yl)phenoxy]-1′H-spiro[cyclohexane-1,4′-quinazolin]-2′(3′H)-one]
19 | 0.7 | 123 | 0.3 | 301 | 89 | O=C1Nc2c(F)ccc(Oc3c(F)cccc3-c3nn[nH]n3)c2C2(CCCCC2)N1 [Example 12]
